Test results published in US9334267B2, “RAF inhibitor compounds” (Deciphera Pharmaceuticals, LLC, priority 2012, dated 2016).

How the values were obtained:
A375res cells = experiment: Proliferation assay in vemurafenib-resistant melanoma cells A375res; details: Homo sapiens, 72 h, read-out: absolute IC50 values
human wild type C-Raf = target: T1, human wild type C-Raf (Homo sapiens, UniProt P04049); experiment: Enzymatic assay of C-Raf kinase activity (Raf/MEK1 ATPase, coupled PK/LDH, A340); type: biochemical; details: read-out: Enzyme IC50, nM C-Raf
T1 construct: made in house
T1 sequence (P04049 whole entry): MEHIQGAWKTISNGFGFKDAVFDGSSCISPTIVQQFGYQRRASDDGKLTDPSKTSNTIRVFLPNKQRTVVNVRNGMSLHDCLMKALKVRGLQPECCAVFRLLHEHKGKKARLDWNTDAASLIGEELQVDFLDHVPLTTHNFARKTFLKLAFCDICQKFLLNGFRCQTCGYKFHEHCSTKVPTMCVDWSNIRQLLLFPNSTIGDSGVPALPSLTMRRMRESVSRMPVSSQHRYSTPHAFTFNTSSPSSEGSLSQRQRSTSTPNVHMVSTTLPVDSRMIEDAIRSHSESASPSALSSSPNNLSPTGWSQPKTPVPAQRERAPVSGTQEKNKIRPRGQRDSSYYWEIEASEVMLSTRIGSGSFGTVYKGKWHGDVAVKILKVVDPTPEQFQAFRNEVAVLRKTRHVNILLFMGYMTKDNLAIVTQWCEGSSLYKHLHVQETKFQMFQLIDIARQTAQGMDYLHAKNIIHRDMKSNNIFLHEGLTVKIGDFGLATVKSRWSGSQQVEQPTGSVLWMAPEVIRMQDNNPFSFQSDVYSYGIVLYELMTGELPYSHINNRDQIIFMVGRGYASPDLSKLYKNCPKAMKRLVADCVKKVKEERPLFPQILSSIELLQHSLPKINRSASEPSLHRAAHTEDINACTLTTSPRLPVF
Description: Test compounds are evaluated for their inhibitory activities against one or more of human wild type B-Raf, human wild type C-Raf, human B-Raf V600E, human B-Raf V600E+T529I or human B-Raf V600E+G468A. T529I is a threonine to isoleucine B-Raf gatekeeper mutation and G468A is a B-Raf secondary mutation at G1403C in exon 11. The enzymatic assays of B-Raf, C-Raf and B-Raf mutations evaluate a property of Raf and MEK1 complex, which in the presence of ATP, catalyzes an enhanced ATP hydrolysis (Rominger, et al, Arch. Biochem. Biophys. 2007, 464: 130-137; US Patent Publication No. 2006/0211073). The ADP formed is monitored by the well-known coupled PK/LDH (pyruvate kinase/lactate dehydrogenase) system in the form of NADH oxidation, which can be monitored and detected spectrophotometrically by absorbance at 340 nm (A340; for principal of the method see Schindler et al, Science, 2000, 289: 1938-1942). Raf activated MEK1 ATPase activity is a property shared by all forms of Raf proteins.
Test compounds are evaluated for their inhibitory activities against one or more of wild type B-Raf, wild type C-Raf, B-Raf V600E, B-Raf V600E+T529I and B-Raf V600E+G468A. T529I is a B-Raf gatekeeper mutation and G468A is a B-Raf secondary mutation. The enzymatic assays of B-Raf, C-Raf and B-Raf mutations evaluate a property of Raf and MEK1 complex, which in the presence of ATP, catalyzes an enhanced ATP hydrolysis (Rominger, et al, Arch. Biochem. Biophys. 2007, 464: 130-137). The ADP formed is monitored by the well-known coupled PK/LDH (pyruvate kinase/lactate dehydrogenase) system in the form of NADH oxidation, which can be monitored and detected by absorbance at 340 nm (A340; for principal of the method see Schindler et al, Science, 2000, 289: 1938-1942). Raf activated MEK1 ATPase activity is a property shared by all forms of Raf proteins. In the B-Raf wild type enzymatic assay, the reaction mixture contains 1.2 nM B-Raf, 30 nM MEK1, 1000 uM ATP, 3.5 units (per 100 ul) of PK, 5 units (per 100 ul) of LDH, 1 mM phosphoenol pyruvate (PEP), and 280 uM of NADH. In the C-Raf assay, the reaction mixture contains 0.6 nM C-Raf, 26 nM MEK1, 2000 uM ATP, and the same amount of PK, LDH, PEP and NADH as above. In the B-Raf V600E assay, the reaction mixture contains […] B-Raf V600E, 26 nM MEK1, 200 uM ATP and the same amount of PK, LDH, PEP and NADH as above. In the B-RafV600E+T529I assay, the reaction mixture contains 6.2 nM B-Raf V600E+T529I, 30 nM MEK1, 200 uM ATP and the same amount of PK, LDH, PEP and NADH as above. In the B-Raf V600E+G468A assay, the reaction mixture contains 3.5 nM B-Raf, 30 nM MEK1, 200 uM ATP and the same amount of PK, LDH, PEP and NADH as above. All assays are started by mixing the above mixture with test compound and monitoring at A340 continuously for approximately 5 hr. […] In the aforementioned assays, the enzyme constructs can be screened prior to or after cleavage of the N-terminal purification tag.

Sk-Mel-2 cells = experiment: SK-Mel-2 cell proliferation assay (resazurin); type: cell-based; details: Homo sapiens, N-Ras mutation B-Raf wild type, read-out: Cell Proliferation Inhibition IC50, nM SK-Mel-2
HCT-116 cells = experiment: HCT-116 cell proliferation assay (resazurin); type: cell-based; details: Homo sapiens, K-Ras mutation B-Raf wild type, read-out: Cell Proliferation Inhibition IC50, nM HCT-116
human wild type c-KIT = target: T2, human wild type c-KIT (Homo sapiens, UniProt P10721); experiment: Enzymatic assay of c-Kit kinase activity (poly E4Y phosphorylation, coupled PK/LDH); type: biochemical
T2 construct: GST (N); made in house
T2 sequence (P10721 26-976): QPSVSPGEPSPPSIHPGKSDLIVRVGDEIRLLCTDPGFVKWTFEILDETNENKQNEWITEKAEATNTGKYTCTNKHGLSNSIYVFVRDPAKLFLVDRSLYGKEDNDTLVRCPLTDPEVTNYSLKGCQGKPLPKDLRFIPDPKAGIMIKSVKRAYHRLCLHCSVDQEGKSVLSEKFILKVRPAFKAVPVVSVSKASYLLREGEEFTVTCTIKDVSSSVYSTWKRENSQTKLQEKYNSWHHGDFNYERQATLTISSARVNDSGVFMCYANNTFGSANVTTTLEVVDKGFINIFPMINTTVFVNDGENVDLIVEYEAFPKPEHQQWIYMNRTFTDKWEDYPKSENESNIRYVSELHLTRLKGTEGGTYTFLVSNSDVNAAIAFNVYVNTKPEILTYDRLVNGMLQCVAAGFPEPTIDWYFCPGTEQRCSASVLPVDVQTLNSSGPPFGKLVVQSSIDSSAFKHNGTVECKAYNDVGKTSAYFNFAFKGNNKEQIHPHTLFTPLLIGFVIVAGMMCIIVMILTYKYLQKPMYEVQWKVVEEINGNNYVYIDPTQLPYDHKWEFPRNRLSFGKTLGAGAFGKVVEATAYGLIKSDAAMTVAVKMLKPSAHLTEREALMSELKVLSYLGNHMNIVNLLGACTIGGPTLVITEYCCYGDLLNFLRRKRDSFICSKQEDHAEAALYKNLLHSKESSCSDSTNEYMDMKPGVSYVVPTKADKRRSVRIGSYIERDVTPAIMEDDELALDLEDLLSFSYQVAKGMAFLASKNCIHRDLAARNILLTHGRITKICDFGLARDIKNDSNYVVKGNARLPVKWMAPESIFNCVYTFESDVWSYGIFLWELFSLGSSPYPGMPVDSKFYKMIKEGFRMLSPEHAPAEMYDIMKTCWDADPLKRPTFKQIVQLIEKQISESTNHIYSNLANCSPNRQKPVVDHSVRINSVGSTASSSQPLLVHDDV
Source text: c-Kit is an important oncogene, and its overexpression and genetic mutations often occur in melanoma and gastrointestinal stromal tumor (GIST) patients. In the c-Kit enzymatic assay, the phosphorylation of poly E4Y by ATP catalyzed by human c-Kit is monitored spectrophotometrically. The ADP produced from the kinase reaction is coupled to pyruvate kinase/lactate dehydrogenase (PK/LDH) reactions where NAD is formed from pyruvate and NADH. NADH can be detected by absorbance at 340 nm, as described above for enzymatic assays of kinase activities of B-Raf, C-Raf and B-Raf mutations.
The assay reaction mixture includes 6 nM human wild type c-KIT, 1 mg/mL Poly (Glu,Tyr) (Sigma), 1 mM Phosphoenol-pyruvate, 280 μM NADH, 5 U/3.5 U (per 100 ul) Pyruvate Kinase/Lactate Dehydrogenase, 85 mM Tris, pH 7.5, 17 mM MgCl2, 0.0042% Triton® X-100, 0.005% BSA, 1% DMSO. Test compound is incubated with the reaction mixture for 0.5 hour before adding 200 μM ATP to start the reaction at 30° C.

HT-29 cells = experiment: HT-29 cell proliferation assay (resazurin); type: cell-based; details: Homo sapiens, V600E mutation, read-out: Cell Proliferation Inhibition IC50, nM HT-29
Description: HT-29 cells (catalog #HTB-38) are obtained from the American Type Culture Collection (ATCC, Manassas, Va.). Briefly, cells are grown in McCoy's 5A supplemented with 10% characterized fetal bovine serum (Invitrogen, Carlsbad, Calif.), and 1% Penicillin/Streptomycin/L-Glutamine at 37 degrees Celsius, 5% CO2, and 95% humidity. Cells are allowed to expand until reaching 75-90% confluency at which point they are subcultured or harvested for assay use. A serial dilution of test compound is dispensed into a 384-well black clear bottom plate in triplicate. One thousand two-hundred fifty cells are added per well in 50 μL complete growth medium in the 384-well plate. Plates are incubated for 67 hours at 37 degrees Celsius, 5% CO2, and 95% humidity. At the end of the incubation period, 10 μL of a 440 μM solution of resazurin (Sigma, St. Louis, Mo.) in PBS is added to each well of the plate and plates are incubated for an additional 5 hours at 37 degrees Celsius, 5% CO2, and 95% humidity. Plates are read on a Synergy2 reader (Biotek, Winooski, Vt.) using an excitation of 540 nm and an emission of 600 nm. Data is analyzed using Prism software (Graphpad, San Diego, Calif.) to calculate IC50 values.
The A375, HT-29, and Colo-205 cells (ATCC) harbor a V600E mutation.

| SMILES | IC50 (A375res cells) | IC50 (human wild type C-Raf) | IC50 (Sk-Mel-2 cells) | IC50 (HCT-116 cells) | IC50 (human wild type c-KIT) | IC50 (HT-29 cells) |
| --- | --- | --- | --- | --- | --- | --- |
| CNc1ncc2cc(-c3cc(NC(=O)NCCC(C)(C)F)c(F)cc3C)c(C)nc2n1 [Example 4, 1-(3-Fluoro-3-methylbutyl)-3-(2-fluoro-4-methyl-5-(7-methyl-2-(methylamino)pyrido[2,3-d]pyrimidin-6-yl)phenyl)urea] | 15 to 1100 nM | < 150 nM | 100 to 1000 nM | 100 to 1000 nM | < 150 nM | < 100 nM |
| Cc1cc(F)c(NC(=O)NCCC(C)(C)C)cc1-c1cc2cnc(N)nc2nc1C [Example 20, 1-(5-(2-Amino-7-methylpyrido[2,3-d]pyrimidin-6-yl)-2-fluoro-4-methylphenyl)-3-(3,3-dimethylbutyl)urea] | 15 to 1100 nM | < 150 nM | < 100 nM | 100 to 1000 nM | < 150 nM | < 100 nM |
| Cc1cc(F)c(NC(=O)NCCC(C)(C)C)cc1-c1cc2cnc(NCCN3CCOCC3)nc2nc1C [Example 21, 1-(3,3-Dimethylbutyl)-3-(2-fluoro-4-methyl-5-(7-methyl-2-((2-morpholinoethyl)amino)pyrido[2,3-d]pyrimidin-6-yl)phenyl)ure] | 15 to 1100 nM | < 150 nM | 100 to 1000 nM | 100 to 1000 nM | < 150 nM | < 100 nM |
| Cc1cc(F)c(NC(=O)NCCC(C)(C)C)cc1-c1cc2cnc(NCc3cn(C)cn3)nc2nc1C [Example 22, 1-(3,3-Dimethylbutyl)-3-(2-fluoro-4-methyl-5-(7-methyl-2-(((1-methyl-1H-imidazol-4-yl)methyl)amino)pyrido[2,3-d]pyrimidin-6-yl)phenyl)urea] | – | < 150 nM | 100 to 1000 nM | 100 to 1000 nM | < 150 nM | < 100 nM |
| Cc1cc(F)c(NC(=O)NCCC2(C)CC2)cc1-c1cc2cnc(N)nc2nc1C [Example 23, 1-(5-(2-Amino-7-methylpyrido[2,3-d]pyrimidin-6-yl)-2-fluoro-4-methylphenyl)-3-(2-(1-methylcyclopropyl)ethyl)urea] | – | < 150 nM | 100 to 1000 nM | 100 to 1000 nM | < 150 nM | < 100 nM |
| COCCNc1ncc2cc(-c3cc(NC(=O)NC4CC(C)(C)C4)c(F)cc3C)c(C)nc2n1 [Example 31, 1-(3,3-Dimethylcyclobutyl)-3-(2-fluoro-5-(2-((2-methoxyethyl)amino)-7-methylpyrido[2,3-d]pyrimidin-6-yl)-4-methylphenyl)urea] | – | < 150 nM | 100 to 1000 nM | 100 to 1000 nM | < 150 nM | < 100 nM |
| CNc1ncc2cc(-c3cc(NC(=O)NCCC(C)(C)C)c(F)cc3Br)c(C)nc2n1 [Example 32, 1-(4-Bromo-2-fluoro-5-(7-methyl-2-(methylamino)pyrido[2,3-d]pyrimidin-6-yl)phenyl)-3-(3,3-dimethylbutyl)urea] | – | < 150 nM | 100 to 1000 nM | 100 to 1000 nM | < 150 nM | < 100 nM |
| CNc1ncc2cc(-c3cc(NC(=O)NCCC(C)(C)C)c(F)cc3F)cnc2n1 [Example 36, 1-(2,4-Difluoro-5-(2-(methylamino)pyrido[2,3-d]pyrimidin-6-yl)phenyl)-3-(3,3-dimethylbutyl)urea methanesulfonate] | – | < 150 nM | 1000 to 10000 nM | 1000 to 10000 nM | < 150 nM | 100 to 1000 nM |

Next, values leading:

| IC50 (A375res cells) | IC50 (human wild type C-Raf) | IC50 (Sk-Mel-2 cells) | IC50 (HCT-116 cells) | IC50 (human wild type c-KIT) | IC50 (HT-29 cells) | SMILES |
| --- | --- | --- | --- | --- | --- | --- |
| 15 to 1100 nM | < 150 nM | 100 to 1000 nM | 100 to 1000 nM | < 150 nM | < 100 nM | CNc1ncc2cc(-c3cc(NC(=O)NCC(O)C(C)(C)C)c(F)cc3C)c(C)nc2n1 (centres unmarked) [Example 15, 1-[2-Fluoro-4-methyl-5-(7-methyl-2-methylamino-pyrido[2,3-d]pyrimidin-6-yl)phenyl]-3-(2-hydroxy-3,3-dimethyl-butyl)urea] |
| 15 to 1100 nM | < 150 nM | 100 to 1000 nM | 100 to 1000 nM | < 150 nM | < 100 nM | Cc1cc(F)c(NC(=O)NCCC(C)(C)C)cc1-c1cc2cnc(NCCO)nc2nc1C [Example 16, 1-(3,3-Dimethylbutyl)-3-[2-fluoro-5-[2-(2-hydroxyethylamino)-7-methyl-pyrido[2,3-d]pyrimidin-6-yl]-4-methyl-phenyl]urea] |
| 15 to 1100 nM | < 150 nM | 100 to 1000 nM | 100 to 1000 nM | < 150 nM | < 100 nM | Cc1cc(F)c(NC(=O)NCCC(C)(C)C)cc1-c1cc2cnc(NCCN(C)C)nc2nc1C [Example 17, 1-[5-[2-(2-Dimethylaminoethylamino)-7-methyl-pyrido[2,3-d]pyrimidin-6-yl]-2-fluoro-4-methyl-phenyl]-3-(3,3-dimethylbutyl)urea] |
| – | < 150 nM | 1000 to 10000 nM | 1000 to 10000 nM | < 150 nM | 100 to 1000 nM | Cc1cc(F)c(NC(=O)NCCC(C)(C)F)cc1-c1cc2cnc(NCCO)nc2nc1C [Example 29, 1-(3-Fluoro-3-methylbutyl)-3-(2-fluoro-5-(2-((2-hydroxyethyl)amino)-7-methylpyrido[2,3-d]pyrimidin-6-yl)-4-methylphenyl)urea] |
| – | < 150 nM | 100 to 1000 nM | 100 to 1000 nM | < 150 nM | < 100 nM | CC(=O)Nc1ncc2cc(-c3cc(NC(=O)NCCC(C)(C)C)c(F)cc3C)c(C)nc2n1 [Example 33, N-(6-(5-(3-(3,3-Dimethylbutyl)ureido)-4-fluoro-2-methylphenyl)-7-methylpyrido[2,3-d]pyrimidin-2-yl)acetamide] |
